Source: PMC8155176, “Reversible modulation of circadian time with chronophotopharmacology” (Nature Communications, 2021)
Entries after “also recorded” stand apart in the source; their conditions may differ.

What was measured:
U2OS cells = experiment: Circadian period assay in Bmal1-dLuc U2OS reporter cells; type: cell-based, human
Description: Next, we tested if the observed light-dependent CKIα inhibition translates into photomodulation of the circadian period in human U2OS cells (Fig. 2d). The Bmal1-dLuc reporter cell line contains the coding sequence of destabilized luciferase driven by the Bmal1 gene promoter sequence. The cell culture medium for luminescence recording includes a high concentration of luciferin (0.2 mM), a substrate for luciferase, which strongly absorbs UV light (Supplementary Fig. 30). […] As the circadian period change is directly correlated with the potency and concentration of the inhibitor[10], the cells were treated with photoswitchable modulators using a broad range of concentrations.
In comparison to the kinase assay, the direct use of UV light for preventing a thermal back-isomerization of the cis-isomer was not feasible due to the cell-damaging effect and the presence of luciferin in the medium. Therefore, the modulators were kept in the dark or photo-isomerized in DMSO prior to the addition, without further irradiation during the circadian assay. All three modulators lengthened the period in the U2OS cells both in the dark and upon irradiation (Fig. 2d). […] Altogether, based on the efficient generation of the cis-isomer under irradiation, retained potency and promising light-modulation of CKIα inhibition, the meta-substituted modulator 4 was identified as representing lead substitution pattern for further investigation.
Stable U2OS reporter cells harboring Bmal1-dLuc reporter were suspended in phenol red-free culture medium [DMEM (D2902, Sigma) supplemented with 10% fetal bovine serum, 3.5 mg/mL D-glucose, 3.7 mg/mL sodium bicarbonate, 0.29 mg/mL L-glutamine, 100 units/mL penicillin, and 100 µg/mL streptomycin] and plated onto a white, solid-bottom 384-well plates at 30 µL (3000 cells) per well. After 2 days, 40 µL of phenol red-free explant medium [DMEM (D2902, Sigma) supplemented with 2% B27 (Gibco), 10 mM HEPES, 3.5 mg/mL D-glucose, 0.38 mg/mL sodium bicarbonate, 0.29 mg/mL L-glutamine, 100 units/mL penicillin, 100 µg/mL streptomycin, and 0.2 mM luciferin; pH 7.2] was dispensed into each well, followed by the application of 0.5 μL of compounds (dissolved in DMSO; final 0.7% DMSO; pre-irradiated with UV for 60 min, white LED for 10 min, and/or green LED for 60 min when indicated). The plate was covered with an optically clear film, and subjected to irradiation with 530 nm LED lamp (3 × 550 mW, λmax = 530 nm, FWHM 36 nm, Sahlmann Photochemical Solutions) or 400 nm LED lamp (3 × 1000 mW, λmax = 400 nm, FWHM 11.9 nm, Sahlmann Photochemical Solutions) from 12 cm distance for 30 min. Compound handling and irradiation were conducted in a dark room under red lamp illumination. Luminescence was recorded every 100 min in a microplate reader, Infinite M200Pro (Tecan). For the phase control experiments, cellular light irradiation was performed in a dark 32 °C room and luminescence was recorded in a microplate reader Synergy H1 (BioTek) placed in the same room, to avoid possible effect of transient temperature change on the phase. Circadian period and phase were determined from luminescence rhythms by a curve fitting program MultiCycle (Actimetrics). Data from the first day was excluded from analysis, because of transient changes in luminescence upon medium change. Statistical significance was evaluated using two-way analysis of variance (ANOVA) followed by a Sidak’s multiple comparisons test or one-way ANOVA followed by a Tukey’s multiple comparisons test using Prism software (GraphPad Software).

[1] = Chemical stability under dark and irradiation conditions followed by LCMS; type: physicochemical; conditions: 40 µM in kinase assay buffer or cell culture medium, dark, 365 nm 3 h, 400 nm 30 min
Description: LCMS traces of stability studies
Supplementary Figure 8. Chemical stability of compound 3 under dark and irradiation conditions followed by LCMS. All the samples were prepared as 40 µM solution in buffer or cell culture medium. ‘Buffer’ and ‘medium’ samples were injected immediately upon dissolving compound 3, ‘buffer_3h_dark’ was injected after 3 h of keeping the solution in dark, ‘buffer_3h_365nm’ after irradiation of the sample for 3 h with UV light in kinase assay buffer, and ‘medium_30min_400nm’ after 30 min of irradiation with 400 nm in cell culture medium. The trans-isomer was followed at the retention time of 10.41-10.47 min and the cis-isomer at the retention time of 8.84-8.90 min. Mass spectra of both isomers in different […]
(1 picture or pasted object on this page, not shown here)

| SMILES | period change, first 3 days, kept in dark (U2OS cells; 8 μM (Fig. 5b)) [h] | period lengthening, dark treatment of green-irradiated cells, additional 3 days (U2OS cells; 8 μM (Fig. 5b)) [h] | period lengthening, violet light treatment of dark-kept cells (U2OS cells; 8 μM (Fig. 5b)) [h] | period lengthening after violet light on the third day of green-irradiated cells (U2OS cells; 8 μM, 400 nm in situ (Fig. 5b)) [h] | period lengthening, three additional days after green light irradiation (U2OS cells; 8 μM, green light 530 nm in cellulo after 3 days (Fig. 5a)) [h] | period change after photoisomerization with green light in vitro (U2OS cells; 8 µM, green light 530 nm pre-incubation (Fig. 4e)) [h] | period change, first 3 days, green light-irradiated cells (U2OS cells; 8 μM, green light in cellulo at start (Fig. 5b)) [h] | period lengthening after green light in vitro and violet light in cellulo (U2OS cells; 8 µM, in situ back-photoisomerization 400 nm (Fig. 4e)) [h] | period lengthening vs DMSO, three additional days, non-irradiated (U2OS cells; 8 μM, kept dark (Fig. 5a)) [h] | period lengthening, trans-isomer (dark) (U2OS cells; 8 µM, thermally adapted, dark (Fig. 4e)) [h] | period change, first 3 days in the dark (U2OS cells; 8 μM, trans-9 applied (Fig. 5a)) [h] | effect of violet light only on dark samples on the circadian period activity (U2OS cells; violet light 400 nm in cellulo (Fig. 4e)) | chemical stability (reduction or oxidation of the azo group) [1] | effect of UV light irradiation on period lengthening (U2OS cells; UV (365 nm) pre-irradiated) | recovery of biological activity upon back-isomerization with white light (U2OS cells; UV light followed by white light) | period lengthening effect under dark conditions (U2OS cells; dark) |
| --- | --- | --- | --- | --- | --- | --- | --- | --- | --- | --- | --- | --- | --- | --- | --- | --- |
| CC(C)n1cnc2c(NCc3ccc(F)c(/N=N/c4c(F)cccc4F)c3F)ncnc21 [Compound 9] | 7 | 5 | 8 | 8 | 2 | 1 | 2 | 4 | 10 | 4 | 5 | no effect | Products of reduction or oxidation were not | – | – | – |
| Cc1nn(C)c(C)c1/N=N/c1cccc(CNc2ncnc3c2ncn3C(C)C)c1 [Compound 8] | – | – | – | – | – | – | – | – | – | – | – | – | Products of reduction or oxidation were not observed; also recorded: no observable reduction or oxidation | suppressed by UV light irradiation | full recovery | strong period lengthening effect |
